In US20220257491A1, “Prebiotic Oral Care Compositions and Methods” (Colgate-Palmolive Company, priority 2021, published 2022):
Where “and” joins values, the source holds several entries; their conditions need not be identical. Equal entries are not always repeated.

Columns and labels:
Assay type in all cases: cell-based
[1] = system: S. sobrinus; assay: Multi-species biofilm composition: absolute abundance of S. sobrinus; settings: mean±SD n=3
Method: (§1) Biofilms are grown vertically on Calcium Deficient Hydroxyapatite (CAD-HA) disks (Hitemco Medical, Old Bethpage, USA) using the Amsterdam Active Adhesion model. Biofilms are allowed to establish during 24 h (37° C., 170 rpm) under micro-aerophilic conditions (6% O2, 7% CO2, 7% H2, 80% N2). After this 24 h, disks are rinsed 3 times a day for 3 minutes (RT, 250 rpm), for 3 consecutive days, by transferring the lid containing the disks to a new 24-well plate containing 2 mL/well of the appropriate substrate solution. As a negative control, PBS (pH 5.7) without substrate supplementation is used. After each rinsing step, disks are shortly dip-rinsed in a new 24-well plate containing fresh modified BHI medium (2 mL/well) to remove remaining substrate traces. Subsequently, the lid is transferred to another 24-well plate containing fresh modified BHI medium (2 mL/well), followed by incubation (micro-aerophilic, 37° C., 170 rpm) until the next rinsing step.
(§2) NADM, N-acetyl-D-glucosamine (“NADG”) and D-(+)-mannose are selected to determine their effects on multi-species biofilm composition. […] decrease in absolute numbers in at least four of the pathogenic bacterial species tested in the assay, compared to the control, the results of which are described in Table 1 below. Absolute abundances of bacterial species are shown as mean±SD (n=3) logarithmic values of the genome equivalents per millilitre (log(Geq/mL)).

[2] = system: multi-species biofilm; assay: Relative multi-species biofilm composition (groups of bacterial species); settings: mean±SD n=3
Method: as §1, §2
Relative abundances of the different groups (beneficial/commensals, periodontal pathogens, cariogenic pathogens) of bacterial species are shown as mean±SD (n=3) percentage of the genome equivalents per millilitre (% (Geq/mL)). […] NADM: N-acetyl-D-mannosamine; NADG: N-acetyl-D-glucosamine.

[3] = system: V. parvula; assay: Multi-species biofilm composition: absolute abundance of V. parvula; settings: mean±SD n=3
Method: as §1
(§3) NADM, N-acetyl-D-glucosamine (“NADG”) and D-(+)-mannose are selected to determine their effects on multi-species biofilm composition. Repeated rinsing of the biofilms with the substrates at a concentration of 1M results in a significant decrease in absolute numbers in at least four of the pathogenic bacterial species tested in the assay, compared to the control, the results of which are described in Table 1 below. Absolute abundances of bacterial species are shown as mean±SD (n=3) logarithmic values of the genome equivalents per millilitre (log(Geq/mL)).

[4] = system: S. salivarius; assay: Multi-species biofilm composition: absolute abundance of S. salivarius; settings: mean±SD n=3
Method: as §1, §3

[5] = system: human oral keratinocytes (HOK-18A); assay: IL-8 levels in supernatants of keratinocyte cultures exposed to substrate-treated biofilms; settings: for IL-8 levels in supernatants of HOK-18A cultures: mean±SD n=3
Method: Cultures of immortalized human oral keratinocytes (HOK-18A) are grown. The relative inflammatory potential of the substrate-treated multi-species biofilms is evaluated by analyzing the expression of five inflammatory mediator genes in human oral keratinocytes (HOKs) exposed to the substrate-treated biofilms. […] The IL-8 levels in the cellular supernatant are determined as well. RNA is converted to cDNA and relative expression of inflammatory mediator genes is determined as described above with respect to the cellular housekeeping gene (3-actin.
Table 7: IL-8 levels detected in the supernatants of human oral keratinocytes (HOK-18A) cultures exposed to substrate-treated multi-species biofilms are shown as mean±SD (n=3) values (pg/mL). All substrates are dissolved in PBS at a concentration of 1 M (upper part) or 1% (w/v) (lower part). Values between 0 and 1 represent relative downregulation, values >1 represent relative upregulation. […] For such values, statistically significant differences between two experimental conditions are marked with ‘#1’ (vs. NADM), ‘#2’ (vs. NADG), ‘#3’ (vs. D-(+)-mannose) (P<0.05).

[6] = system: P. intermedia; assay: Multi-species biofilm composition: absolute abundance of P. intermedia; settings: mean±SD n=3
Method: as §1, §3

[7] = system: multi-species biofilms; assay: Multi-species biofilm organic acid balances (supernatant); settings: >0 production, <0 consumption, mean±SD n=3
Method: as §1
To examine the effect of NADM and the influence of the orientation and absence/presence of the N-acetyl group on organic acid production and consumption, supernatant samples from substrate-treated or untreated multi-species biofilms are analysed. […] When comparing relevant significant differences between substrate conditions, an increase in acetate production is observed for NADM compared to D-(+)-mannose (3084±174 vs. 1934±56 mg/L).

[8] = system: A. actinomycetemcomitans; assay: Multi-species biofilm composition: absolute abundance of A. actinomycetemcomitans; settings: mean±SD n=3
Method: as §1, §2

[9] = system: A. viscosus; assay: Multi-species biofilm composition: absolute abundance of A. viscosus; settings: mean±SD n=3
Method: as §1, §2

[10] = system: F. nucleatum virulence genes; assay: Multi-species biofilm virulence gene expression, SYBR RT-qPCR: F. nucleatum; settings: relative to control (=1), 2^-ΔΔCt, geometric mean n=3
Method: as §1
(§4) The expression of 33 virulence genes from 4 periodontal pathogens is analysed to evaluate the relative virulence of the substrate-treated biofilms. For all three substrates, virulence gene expression is determined relatively to the control, and these values are also compared between substrates when this is relevant (Tables 5a-5d).

[11] = system: P. gingivalis virulence genes; assay: Multi-species biofilm virulence gene expression, SYBR RT-qPCR: P. gingivalis; settings: relative to control, 2^-ΔΔCt, geometric mean n=3
Method: as §1, §4

With `CC(=O)N[C@@H]1C(O)O[C@H](CO)[C@@H](O)[C@@H]1O` (stereo partly drawn) [NADM, N-acetyl-D-mannosamine] the “Absolute abundance S. sobrinus” value ([1]; substrate 1%(w/v) in PBS) was 5.24 ± 0.27 log(Geq/mL), the “Absolute abundance S. sobrinus” value ([1]; substrate 1 M in PBS) was 6.05 ± 0.23 log(Geq/mL) and the “Relative abundance Beneficials/Commensals” value ([2]; substrate 1%(w/v) in PBS) was 61.62 ± 4.88 % (Geq/mL). For the same molecule, the “Relative abundance Cariogenic Pathogens” value ([2]; substrate 1%(w/v) in PBS) was 0.05 ± 0.01 % (Geq/mL), the “Relative abundance Periodontal Pathogens” value ([2]; substrate 1%(w/v) in PBS) was 38.32 ± 4.86 % (Geq/mL) and the “Relative abundance Beneficial or commensals” value ([2]; substrate 1 M in PBS) was 97.61±0.28 % (Geq/mL). For the same molecule, the “Relative abundance Cariogenic Pathogens” value ([2]; substrate 1 M in PBS) was 0.06 ± 0.04 % (Geq/mL), the “Relative abundance Periodontal Pathogens” value ([2]; substrate 1 M in PBS) was 2.34±0.31 % (Geq/mL) and 2.34 ± 0.31^#2, 3 % (Geq/mL) and the “Absolute abundance Vp (V. parvula)” value ([3]; substrate 1%(w/v) in PBS) was 10.05 ± 0.17 log(Geq/mL). The “Absolute abundance Vp (V. parvula)” value ([3]; substrate 1 M in PBS) was 10.76 ± 0.09 log(Geq/mL), the “Absolute abundance S. sal. (S. salivarius)” value ([4]; substrate 1%(w/v) in PBS) was 2.90 ± 0.36 log(Geq/mL) and the “Absolute abundance S. sal. (S. salivarius)” value ([4]; substrate 1 M in PBS) was 3.34 ± 0.55 log(Geq/mL). The “IL-8 levels in supernatants of HOK-18A cultures” value ([5]; biofilm rinsed with substrate 1%(w/v)) was 30.32 ± 6.26 pg/mL, the “IL-8 levels in supernatants of HOK-18A cultures” value ([5]; biofilm rinsed with substrate 1M) was 0.59 ± 0.61 pg/mL and the “Reduced IL-8 levels compared to the control” value ([5]; substrate 1%(w/v)) was 2.4 fold. For the same molecule, the “Absolute abundance Pi (P. intermedia)” value ([6]; substrate 1%(w/v) in PBS) was 7.48 ± 0.40 log(Geq/mL), the “Absolute abundance Pi (P. intermedia)” value ([6]; substrate 1 M in PBS) was 9.07 ± 0.06 log(Geq/mL) and the “acetate level in biofilm supernatant” value ([7]; substrate 1%(w/v)) was 396 ± 11 mg/L. The “butyrate level in biofilm supernatant” value ([7]; substrate 1%(w/v)) was 1989 ± 44 mg/L, the “formate level in biofilm supernatant” value ([7]; substrate 1%(w/v)) was 3768 ± 174 mg/L and the “lactate level in biofilm supernatant” value ([7]; substrate 1%(w/v)) was 125 ± 0 mg/L. For the same molecule, the “propionate level in biofilm supernatant” value ([7]; substrate 1%(w/v)) was 1891 ± 79 mg/L, the “butyrate level in biofilm supernatant” value ([7]; substrate 1 M) was 541±52 mg/L and 541 ± 52*^, #2, 3 mg/L and the “formate level in biofilm supernatant” value ([7]; substrate 1 M) was 791.9 ± 138.27 mg/L and 792 ± 138 mg/L. The “lactate level in biofilm supernatant” value ([7]; substrate 1 M) was 125 ± 0 mg/L, the “propionate level in biofilm supernatant” value ([7]; substrate 1 M) was 2052 ± 54 mg/L and the “Absolute abundance Aa (A. actinomycetemcomitans)” value ([8]; substrate 1%(w/v) in PBS) was 9.51 ± 0.05 log(Geq/mL). The “Absolute abundance Aa (A. actinomycetemcomitans)” value ([8]; substrate 1 M in PBS) was 7.84 ± 0.53 log(Geq/mL), the “Absolute abundance Av (A. viscosus)” value ([9]; substrate 1%(w/v) in PBS) was 7.73 ± 0.09 log(Geq/mL) and the “Absolute abundance Av (A. viscosus)” value ([9]; substrate 1 M in PBS) was 8.35 ± 0.30 log(Geq/mL). For the same molecule, the “Fold Change in virulence gene expression: ABC transp. perm.” value ([10]; substrate 1%) was 0.39 fold, the “Fold Change in virulence gene expression: EF-G” value ([10]; substrate 1%) was 0.11 fold and the “Fold Change in virulence gene expression: but.-coA transf.” value ([10]; substrate 1%) was 0.38 fold. The “Fold Change in virulence gene expression: hemin receptor” value ([10]; substrate 1%) was 0.10 fold, the “Fold Change in virulence gene expression: hemolysin” value ([10]; substrate 1%) was 0.55 fold and the “Fold Change in virulence gene expression: ompA” value ([10]; substrate 1%) was 0.75 fold. The “Fold Change in virulence gene expression: transposase” value ([10]; substrate 1%) was 0.75 fold, the “Fold Change in virulence gene expression: ABC transp. perm.” value ([10]; substrate 1M) was 2.46 fold and the “Fold Change in virulence gene expression: EF-G” value ([10]; substrate 1M) was 1.37 fold. For the same molecule, the “Fold Change in virulence gene expression: but.-coA transf.” value ([10]; substrate 1M) was 0.76 fold, the “Fold Change in virulence gene expression: hemin receptor” value ([10]; substrate 1M) was 2.81 fold and the “Fold Change in virulence gene expression: hemolysin” value ([10]; substrate 1M) was 1.05 fold. The “Fold Change in virulence gene expression: ompA” value ([10]; substrate 1M) was 1.27 fold, the “Fold Change in virulence gene expression: transposase” value ([10]; substrate 1M) was 1.03 fold and the “Fold Change in virulence gene expression: fimA” value ([11]; substrate 1%) was 1.07 fold. For the same molecule, the “Fold Change in virulence gene expression: kgp” value ([11]; substrate 1%) was 3.46 fold, the “Fold Change in virulence gene expression: partC” value ([11]; substrate 1%) was 0.62 fold and the “Fold Change in virulence gene expression: rgpA” value ([11]; substrate 1%) was 0.88 fold. For the same molecule, the “Fold Change in virulence gene expression: fimA” value ([11]; substrate 1M) was 0.50 fold, the “Fold Change in virulence gene expression: kgp” value ([11]; substrate 1M) was 0.82 fold and the “Fold Change in virulence gene expression: partC” value ([11]; substrate 1M) was 0.20 fold. For the same molecule, the “Fold Change in virulence gene expression: rgpA” value ([11]; substrate 1M) was 0.43 fold.
